Reference: ChEMBL document CHEMBL5532762, “Potential of covalently linked tamoxifen hybrids for cancer treatment: recent update” (RSC Med Chem, 2024)
Values belong to the molecule of their own block, whether it stands above or below them.

Columns and labels:
MCF7 [1] = test: Antiproliferative activity against human MCF7 cells assessed as reduction in cell growth measured after 72 hrs by alamar blue analysis; settings: MCF7, 72 h
MCF7 [2] = test: Antiproliferative activity against human MCF7 cells assessed as reduction in cell growth incubated for 24 hrs by MTT assay; settings: MCF7, 24 h
MDA-MB-231 [3] = test: Antiproliferative activity against human MDA-MB-231 cells assessed as reduction in cell growth incubated for 24 hrs by MTT assay; settings: MDA-MB-231, 24 h
MCF7 [4] = test: Antiproliferative activity against human MCF7 cells assessed as reduction in cell viability measured after 72 hrs by MTT assay; type: functional, cell-based; settings: MCF7, 72 h
MDA-MB-231 [5] = test: Growth inhibition of human MDA-MB-231 cells measured after 48 hrs by SRB assay; type: functional
[6] = Aqueous solubility of the compound; type: physicochemical; settings: water (aqueous)
MCF7 [7] = test: Antiproliferative activity against human MCF7 cells assessed as cell growth inhibition incubated for 72 hrs by MTT assay; settings: MCF7, 72 h
SiHa = test: Growth inhibition of human SiHa cells measured after 48 hrs by SRB assay; type: functional
Estrogen receptor beta = Estrogen receptor beta (Homo sapiens, UniProt Q92731); test: Inhibition of ERbeta (unknown origin) by renilla luciferase assay
Estrogen receptor beta, sequence (Q92731 whole entry): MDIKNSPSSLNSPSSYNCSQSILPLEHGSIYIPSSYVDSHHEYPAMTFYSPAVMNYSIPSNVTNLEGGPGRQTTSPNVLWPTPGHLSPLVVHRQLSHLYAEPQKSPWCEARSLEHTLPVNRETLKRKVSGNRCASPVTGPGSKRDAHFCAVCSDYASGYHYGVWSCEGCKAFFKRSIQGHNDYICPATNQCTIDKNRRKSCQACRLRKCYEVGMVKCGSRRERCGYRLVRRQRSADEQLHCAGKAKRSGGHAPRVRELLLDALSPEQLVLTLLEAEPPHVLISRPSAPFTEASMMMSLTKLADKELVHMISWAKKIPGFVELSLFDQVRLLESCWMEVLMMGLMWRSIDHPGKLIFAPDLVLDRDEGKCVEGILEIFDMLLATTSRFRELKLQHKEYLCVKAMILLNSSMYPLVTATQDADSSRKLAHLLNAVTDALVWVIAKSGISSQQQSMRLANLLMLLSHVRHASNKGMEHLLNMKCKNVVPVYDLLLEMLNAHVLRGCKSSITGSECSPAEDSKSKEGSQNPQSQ

Compound: CC/C(=C(\c1ccc(O)cc1)c1ccc(OCCN(C)C(=O)CCC(=O)Oc2cc(/C=C\c3cc(OC)c(OC)c(OC)c3)ccc2OC)cc1)c1ccccc1
IC50 (MCF7 [1]): 5.7 nM

Compound: COc1ccc(/C=C\c2cc(OC)c(OC)c(OC)c2)cc1O [COMBRETASTATIN A4]
IC50 (MCF7 [2]): 8 nM

IC50 (MCF7 [2]): 5 nM
IC50 (MDA-MB-231 [3]): 2480 nM
Compound: CCC(=C(c1ccc(O)cc1)c1ccc(OCCN(C)C(=O)/C(=C/c2ccc(OC)c(O)c2)c2cc(OC)c(OC)c(OC)c2)cc1)c1ccc(O)cc1

IC50 (MCF7 [2]): 29 nM
Compound: CC/C(=C(\c1ccc(O)cc1)c1ccc(OCCNC)cc1)c1ccccc1 [ENDOXIFEN]

IC50 (MCF7 [4]): 80000 nM
Compound: CC/C(=C(\c1ccccc1)c1ccc(OCCN(C)CCCCCC(=O)NCCc2c[nH]c3ccc(OC)cc23)cc1)c1ccccc1

GI50 (MDA-MB-231 [5]): 230 nM
Compound: c1ccc(/C(Cn2cncn2)=C(/c2ccccc2)c2ccc(OCCN3CCN(c4ccc5c(c4)OCO5)CC3)cc2)cc1

IC50 (MCF7 [4]): 4000 nM
Compound: CC/C(=C(\c1ccccc1)c1ccc(OCCN(C)CCCCC(=O)NCCc2c[nH]c3ccc(OC)cc23)cc1)c1ccccc1

Compound: CC/C(=C(/c1ccc(OCCN(C)C)cc1)c1ccc(OC(=O)N(C)CCN(C)C(=O)OCc2cc(OC)c(OCC(=O)NCCN)cc2[N+](=O)[O-])cc1)c1ccccc1
solubility [6]: ≥ 20 µg/mL

GI50 (MDA-MB-231 [5]): 240 nM
IC50 (MCF7 [7]): 12600 nM
Compound: CC/C(=C(\c1ccccc1)c1ccc(OCCN(C)C)cc1)c1ccccc1 [TAMOXIFEN]

Compound: c1ccc(/C(Cn2cncn2)=C(/c2ccccc2)c2ccc(OCCN3CCN(c4ncccn4)CC3)cc2)cc1
GI50 (SiHa): 120 nM

solubility [6]: ≥ 20 µg/mL
Compound: COc1cc(COc2ccc(/C(=C(\C)c3ccccc3)c3ccc(OCCN(C)C)cc3)cc2)c([N+](=O)[O-])cc1OCC(=O)NCCN

IC50 (Estrogen receptor beta): 240000 nM
Compound: CCC(=C(c1ccc(O)cc1)c1ccc(OCCNCCCCCCNC(=O)CCCCCNC(=O)CSc2c(Cl)c(Cl)c(C(=O)O)c(C3=c4cc5c(c(S(=O)(=O)O)c4Oc4c3cc3c(c4S(=O)(=O)O)NC(C)(C)CC3C)=NC(C)(C)CC5C)c2Cl)cc1)c1ccccc1 (centres undefined)
